The numbers were not newly measured in patent US20040191345A1, “New formulations and use thereof” (priority 2003, published 2004), which cites them from elsewhere.

For series [1] the following is noted: at room temperature.
For series [2] the following is noted: n-octanol / phosphate buffer at pH 7.32.

The structures appear in SMILES notation.

Regarding `Cc1ccc(O)c(C(CCN(C(C)C)C(C)C)c2ccccc2)c1` (stereo not drawn) [Tolterodine, N,N-diiso-propyl-3-(2-hydroxy-5-methylphenyl)-3-phenylpropanamine], the pKa value is listed as 9.87. Moreover, in series [1], the solubility in water entry is “about 11 mg/ml”. Further, in series [2], the “partition coefficient (Log P)” value was 1.83.
